# Data published in article PMC13503280, “A pharmacological modality to sequester homomeric proteins” (Nature Chemical Biology, 2026).
# Columns and labels:
# recombinant Keap1 BTB = target: T1, recombinant Keap1 BTB (Homo sapiens, UniProt Q14145, S172A); assay: DLS of recombinant Keap1 BTB domain; type: biochemical; settings: 50 μM Keap1 BTB, 50 μM compound, room temperature, over time
# T1 construct: The Keap1 BTB domain (48–180) encoding the single substitution S172A was cloned into pET28-bdSumo vector; His–bdSumo (N, cleaved yes); made in house; host or cells: E. coli BL21(DE3)
# Method: (§1) DLS samples were prepared in the respective protein’s elution buffer, to which 0.01% Tween was added, along with the compound from a DMSO stock to obtain a final DMSO concentration of 2%. Samples were prepared at room temperature and measured at a constant temperature of 25 °C. All samples were passed through 0.1-μm filters and then placed in a clear-bottom black 384-well plate. DLS data were recorded using a DynaproPlate Reader III (Wyatt Technology). Data were processed with the supplied DYNAMICS software.
# Keap1 = Keap1 (Homo sapiens, UniProt Q14145); assay: WB of Keap1 in OCI-AML2 cells (soluble/insoluble phase); type: cell-based; parameters: endogenous in cells; host or cells: OCI-AML2; settings: OCI-AML2 cells, 20 h treatment; for EC50: read-out: EC50 (Keap1 downregulation, WB)
# Method: Cells were incubated with DMSO at 0.1% or with compound in concentrations ranging 10–20,000 nM for 20 h unless indicated differently. Following incubation, lysis was performed in RIPA buffer and the samples were measured for total protein quantification by BCA assay (Thermo Fisher Scientific, 23225). Then, 20–40 μg of each sample was loaded and run on an SDS–PAGE gel, before transferring onto a nitrocellulose membrane using a Trans-Blot Turbo system (Bio-Rad) and blocking using a 5% BSA in TBS-T (w/v) solution for 1 h at room temperature. Incubation with primary antibodies (mouse anti-BCL-6 (sc-7388, Santa Cruz, 1:500; overnight at 4 °C), mouse anti-Keap1 (sc-365626, Santa Cruz, 1:500; overnight at 4 °C), rabbit anti-LDHA (4H18L6, Thermo Fisher, 1:1,000; overnight at 4 °C), mouse anti-NQO2 (sc-271665, Santa Cruz, 1:500; overnight at 4 °C), rabbit anti-c-Myc (5605, Cell Signaling, 1:1,000; overnight at 4 °C) and mouse anti-β-actin (3700, Cell Signaling, 1:1,000; 1 h at room temperature) was performed and then the membranes were washed and incubated with a horseradish-peroxidase-conjugated secondary antibody (mouse 7076/rabbit 7074, Cell Signaling) at room temperature for 1 h. Imaging of the chemiluminescence signal was performed using a ChemiDoc XRS+ instrument (Bio-Rad). Primary band quantifications were normalized against β-actin bands.
# recombinant NQO2 = target: T2, recombinant NQO2 (Homo sapiens, UniProt P16083); assay: DLS of recombinant NQO2; type: biochemical; settings: recombinant NQO2, room temperature, over time
# T2 construct: made in house; host or cells: E. coli BL21(DE3)
# T2 sequence (P16083 1-231): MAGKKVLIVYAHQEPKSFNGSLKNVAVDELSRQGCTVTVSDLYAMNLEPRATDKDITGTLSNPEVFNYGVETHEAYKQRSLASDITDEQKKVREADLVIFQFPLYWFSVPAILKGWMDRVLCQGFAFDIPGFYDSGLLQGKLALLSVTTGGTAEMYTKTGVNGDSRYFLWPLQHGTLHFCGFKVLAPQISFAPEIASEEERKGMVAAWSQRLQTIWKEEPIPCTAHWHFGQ
# Method: as §1
# Keap1, sequence (Q14145 whole entry): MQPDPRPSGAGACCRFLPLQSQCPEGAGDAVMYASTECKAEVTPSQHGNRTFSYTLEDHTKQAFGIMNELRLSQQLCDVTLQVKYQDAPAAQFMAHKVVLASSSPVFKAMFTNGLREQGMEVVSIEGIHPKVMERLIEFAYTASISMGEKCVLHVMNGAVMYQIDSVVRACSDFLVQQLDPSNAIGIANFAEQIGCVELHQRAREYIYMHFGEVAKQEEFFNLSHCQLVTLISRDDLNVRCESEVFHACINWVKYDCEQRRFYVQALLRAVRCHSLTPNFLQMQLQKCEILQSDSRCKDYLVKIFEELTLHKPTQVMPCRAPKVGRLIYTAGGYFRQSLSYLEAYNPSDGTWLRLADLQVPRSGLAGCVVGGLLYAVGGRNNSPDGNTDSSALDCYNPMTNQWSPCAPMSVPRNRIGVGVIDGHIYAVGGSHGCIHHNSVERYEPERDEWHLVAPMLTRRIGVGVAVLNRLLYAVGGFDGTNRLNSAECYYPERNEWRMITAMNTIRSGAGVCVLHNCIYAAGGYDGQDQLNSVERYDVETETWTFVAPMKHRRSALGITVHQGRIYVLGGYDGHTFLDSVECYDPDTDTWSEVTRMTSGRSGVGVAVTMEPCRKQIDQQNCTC
# T1 sequence (Q14145 48-180 S172A): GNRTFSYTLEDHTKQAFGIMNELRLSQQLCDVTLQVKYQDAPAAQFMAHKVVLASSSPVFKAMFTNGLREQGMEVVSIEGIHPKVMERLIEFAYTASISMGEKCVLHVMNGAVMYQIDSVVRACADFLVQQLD
EC50 (Keap1) [nM],Keap1 in soluble and insoluble fraction (WB activity) (Keap1),Structure (SMILES),further results
–,no activity,CC1(C)CCC2(C(=O)NCCOCCNC(=O)C34CCC(C)(C)CC3C3C(=O)C=C5C6(C)C=C(C#N)C(=O)C(C)(C)C6CCC5(C)C3(C)CC4)CCC3(C)C(C(=O)C=C4C5(C)C=C(C#N)C(=O)C(C)(C)C5CCC43C)C2C1 (stereo not drawn) [EL147],–
–,no activity,CC1(C)CCC2(C(=O)NCCOCCOCCOCCNC(=O)C34CCC(C)(C)CC3C3C(=O)C=C5C6(C)C=C(C#N)C(=O)C(C)(C)C6CCC5(C)C3(C)CC4)CCC3(C)C(C(=O)C=C4C5(C)C=C(C#N)C(=O)C(C)(C)C5CCC43C)C2C1 (stereo not drawn) [EL151],–
904,–,CC1(C)CCC2(C(=O)NCCOCCOCCOCCOCCOCCOCCNC(=O)C34CCC(C)(C)CC3C3C(=O)C=C5C6(C)C=C(C#N)C(=O)C(C)(C)C6CCC5(C)C3(C)CC4)CCC3(C)C(C(=O)C=C4C5(C)C=C(C#N)C(=O)C(C)(C)C5CCC43C)C2C1 (stereo not drawn) [EL152],–
–,no activity,CC1(C)CCC2(C(=O)NCC(=O)N3CCN(C(=O)CNC(=O)C45CCC(C)(C)CC4C4C(=O)C=C6C7(C)C=C(C#N)C(=O)C(C)(C)C7CCC6(C)C4(C)CC5)CC3)CCC3(C)C(C(=O)C=C4C5(C)C=C(C#N)C(=O)C(C)(C)C5CCC43C)C2C1 (stereo not drawn) [EL174],–

# Second part, the compound before the results:
Structure (SMILES),EC50 (Keap1) [nM],Keap1 in soluble and insoluble fraction (WB activity) (Keap1),further results
CC1(C)CCC2(C(=O)NCCCCCCNC(=O)C34CCC(C)(C)CC3C3C(=O)C=C5C6(C)C=C(C#N)C(=O)C(C)(C)C6CCC5(C)C3(C)CC4)CCC3(C)C(C(=O)C=C4C5(C)C=C(C#N)C(=O)C(C)(C)C5CCC43C)C2C1 (stereo not drawn) [EL132],1020,–,formation of large species (DLS) (recombinant Keap1 BTB): formation of large species over time
CC1(C)CCC2(C(=O)NCC3CCC(CNC(=O)C45CCC(C)(C)CC4C4C(=O)C=C6C7(C)C=C(C#N)C(=O)C(C)(C)C7CCC6(C)C4(C)CC5)CC3)CCC3(C)C(C(=O)C=C4C5(C)C=C(C#N)C(=O)C(C)(C)C5CCC43C)C2C1 (stereo not drawn) [EL159],–,no activity,–
CC1(C)CCC2(C(=O)NCCCCCCCCNC(=O)C34CCC(C)(C)CC3C3C(=O)C=C5C6(C)C=C(C#N)C(=O)C(C)(C)C6CCC5(C)C3(C)CC4)CCC3(C)C(C(=O)C=C4C5(C)C=C(C#N)C(=O)C(C)(C)C5CCC43C)C2C1 (stereo not drawn) [EL163],–,no activity,–
CC1(C)CCC2(C(=O)NCCSCCSCCNC(=O)C34CCC(C)(C)CC3C3C(=O)C=C5C6(C)C=C(C#N)C(=O)C(C)(C)C6CCC5(C)C3(C)CC4)CCC3(C)C(C(=O)C=C4C5(C)C=C(C#N)C(=O)C(C)(C)C5CCC43C)C2C1 (stereo not drawn) [EL164],434,–,–
CC1(C)CCC2(C(=O)NCCN3CCN(CCNC(=O)C45CCC(C)(C)CC4C4C(=O)C=C6C7(C)C=C(C#N)C(=O)C(C)(C)C7CCC6(C)C4(C)CC5)CC3)CCC3(C)C(C(=O)C=C4C5(C)C=C(C#N)C(=O)C(C)(C)C5CCC43C)C2C1 (stereo not drawn) [EL165],342,–,formation of large species (DLS) (recombinant Keap1 BTB): formation of large species over time
CC1(C)CCC2(C(=O)NCCOCCOCCOCCOCCOCCOCCOCCOCCOCCOCCOCCOCCOCCNC(=O)C34CCC(C)(C)CC3C3C(=O)C=C5C6(C)C=C(C#N)C(=O)C(C)(C)C6CCC5(C)C3(C)CC4)CCC3(C)C(C(=O)C=C4C5(C)C=C(C#N)C(=O)C(C)(C)C5CCC43C)C2C1 (stereo not drawn) [EL229],–,reduced Keap1 in the cell’s soluble fraction and induced its accumulation in the insoluble fraction,–
Cc1ccc(-c2cn3cccc(C)c3n2)cc1S(=O)(=O)N1CCN(C(=O)CCOCCOCCOCCOCCOCCOCCOCCOCCOCCOCCC(=O)N2CCN(S(=O)(=O)c3cc(-c4cn5cccc(C)c5n4)ccc3C)CC2)CC1 [EL241],–,–,formation of larger species (DLS) (recombinant NQO2): little to no effect in polymerizing NQO2
Cc1ccc(-c2cn3cccc(C)c3n2)cc1S(=O)(=O)N1CCN(C(=O)COCC(=O)N2CCN(S(=O)(=O)c3cc(-c4cn5cccc(C)c5n4)ccc3C)CC2)CC1 [EL244],–,–,formation of larger species (DLS) (recombinant NQO2): ability to form larger species in solution
Cc1ccc(-c2cn3cccc(C)c3n2)cc1S(=O)(=O)N1CCN(C(=O)COCCOCC(=O)N2CCN(S(=O)(=O)c3cc(-c4cn5cccc(C)c5n4)ccc3C)CC2)CC1 [EL245],–,–,formation of larger species (DLS) (recombinant NQO2): ability to form larger species in solution
